pEC50, pIC50: −log10 of the molar value. Counter-ions that a name gives are not always drawn.
Tests used:
[1] = target: T1, cMET enzyme (amino acids 1023-1360) (Homo sapiens, UniProt P08581); assay: Determination of inhibition of cMET (capillary electrophoresis, phosphorylated peptide product); format: biochemical; settings: 1.2 nM cMET, 50 μM ATP, 2 μM FL-2 peptide, 2 hours room temperature
T1 construct: The cMET enzyme (amino acids 1023-1360) nominally at 24 μM was held at −80° C. until use; His tag (N, cleaved yes); made in house; host or cells: Sf9 cells
T1 sequence (P08581 1023-1360): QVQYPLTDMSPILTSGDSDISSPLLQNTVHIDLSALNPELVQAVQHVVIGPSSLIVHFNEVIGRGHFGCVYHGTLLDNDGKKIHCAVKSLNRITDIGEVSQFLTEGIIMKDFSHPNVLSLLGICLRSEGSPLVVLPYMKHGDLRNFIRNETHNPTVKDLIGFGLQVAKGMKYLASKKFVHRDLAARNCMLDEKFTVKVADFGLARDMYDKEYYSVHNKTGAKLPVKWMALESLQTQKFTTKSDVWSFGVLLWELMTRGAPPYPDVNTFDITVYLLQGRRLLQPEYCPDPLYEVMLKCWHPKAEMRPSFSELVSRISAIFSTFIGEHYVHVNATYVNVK
Experimental: The inhibitory property of a compound relative to cMET catalysis was determined by use of capillary electrophoresis with fluorescence quantification of a phosphorylated peptide product for cMET. The cMET enzyme (amino acids 1023-1360) nominally at 24 μM was held at −80° C. until use, in a buffer containing 25 mM Tris-HCl pH 8.5, 150 mM NaCl, 3 mM DTT and 10% glycerol. […] Following purification, the tag was removed and enzyme concentrated. […] To activate the enzyme fully, frozen cMET was thawed quickly and activated with the addition of assay buffer (50 mM HEPES pH 7.5, 10 mM NaCl, 10 mM MgCl2, 0.01% Brij® 35), 1.25 mM ATP, 5 mM MgCl2 and 5 mM DTT at a cMET concentration of 2.4 μM followed by a 30 minute incubation at room temperature. […] Next, cMET enzyme (1.2 nM final) was added and the system incubated at room temperature for 20 minutes. Catalysis was initiated by the addition of ATP (50 μM final). Assays were incubated at room temperature for 2 hours then quenched by the addition of EDTA. Phosphorylated peptide product was quantified by monitoring fluorescence during capillary electrophoresis with Caliper LifeSciences LabChip 3000 under the following settings: base pressure=−0.1 psi, screen pressure=−1.2 psi, downstream voltage=−500 V, upstream voltage=−2300 V, chip type=TC372. The elution buffer was identical to the assay buffer except for the absence of DTT, FL-2 and ATP and the addition of 0.1% coating reagent (Caliper). […] Peak height was quantified and used to determine enzyme velocities.
IC50 values were calculated by non-linear least squares curve fitting of the standard IC50 equation to background-corrected cMET velocity versus compound concentration.

MKN45 = assay: Inhibition of cell viability (MTS), MKN45; format: cell-based; settings: MKN45 cells, 96 hours incubation
Experimental: (§1) Cells were maintained at 37° C. in a humidified atmosphere containing 5%-8% CO2 following the instructions of the supplier (American Type Culture Collection (Rockville, Md.)). Inhibition of cell viability was determined for a panel of tumor cell lines (MKN45, EBC1 and A549), using the soluble tetrazolium salt, MTS (Promega, Madison, Wis.). Cells were seeded at 2,000-7,500 cells/well in 96-well tissue culture plates and were allowed to attach for approximately 24 hours prior to addition of compounds or DMSO vehicle. […] Cells were treated in duplicate with test compounds. Compounds were serially diluted (1:2.5) from column 1 to 11 and column 12 contained DMSO vehicle. Compounds were diluted into cell growth medium then compound solution was added to cells. Equal amounts of DMSO were added to cells (final concentration is 0.5%). After background correction and normalization against DMSO-treated cells, EC50 values were calculated using non-linear curve-fitting of the cell viability as a function of compound concentration. The MKN45 and EBC1 cell lines contain high levels of phospho-Met and are dependent on cMET for proliferation, whereas the A549 line is used as negative control.
(§2) EC50 values may be calculated by non-linear curve fitting of the compound concentrations and fluorescence intensities to the standard EC50 equation.

A549 = assay: Inhibition of cell viability (MTS), A549 (negative control line); format: cell-based; settings: A549 cells (negative control), 96 hours incubation
Experimental: as §1, §2

EBC1 = assay: Inhibition of cell viability (MTS), EBC1; format: cell-based; settings: EBC1 cells, 96 hours incubation
Experimental: as §1, §2

| SMILES | pIC50 [1] | pEC50 (MKN45) | pEC50 (A549; Homo sapiens, A549, 96 h) | pEC50 (EBC1; Homo sapiens, EBC-1, 96 h) | pEC50 (A549) | pEC50 (EBC1) | pEC50 (MKN45; Homo sapiens, MKN-45, 96 h) |
| --- | --- | --- | --- | --- | --- | --- | --- |
| O=C(Nc1cn2nc(Sc3nnc4ccccn34)ccc2n1)C1CC1 [3 (HCl Salt)] | < 7.00 | 6.20 to 6.60 | 4.60 to 5.10 | 6.70 to 7.00 |  |  |  |
| O=C(Nc1cn2nc(Sc3nnc4ccccn34)ccc2n1)C1CC1 [3 (TFA Salt), N-(6-([1,2,4]triazolo[4,3-a]pyridin-3-ylthio)imidazo[1,2-b]pyridazin-2-yl)cyclopropanecarboxamide] | < 7.00 | 6.20 to 6.60 |  |  | 4.60 to 5.10 | 6.70 to 7.00 |  |
| O=C(Nc1cn2nc(Sc3nnc4ccccn34)ccc2n1)C1CC1 [3 (free base), N-(6-([1,2,4]Triazolo[4,3-a]pyridin-3-ylthio)imidazo[1,2-b]pyridazin-2-yl)cyclopropanecarboxamide] | < 7.00 | 6.70 to 7.00 |  |  | 4.60 to 5.10 | 7.00 to 7.22 |  |
| Cn1cc(-c2ccc3nnn(Cc4ccc5nc(NC(=O)C6CC6)cn5n4)c3c2)cn1 [13 (HCl Salt), N-(6-((6-(1-methyl-1H-pyrazol-4-yl)-1H-benzo[d][1,2,3]triazol-1-yl)methyl)imidazo[1,2-b]pyridazin-2-yl)cyclopropanecarboxamide] | 7.23 to 7.52 | 6.60 to 7.00 |  | > 7.46 | 4.60 to 5.10 |  |  |
| Cn1cc(-c2ccc3nnn(Cc4ccc5nc(NC(=O)C6CC6)cn5n4)c3c2)cn1 [13 (TFA Salt), Cyclopropanecarboxylic acid {6-[6-(1-methyl-1H-pyrazol-4-yl)-benzotriazol-1-ylmethyl]-imidazo[1,2-b]pyridazin-2-yl}-amide] | 7.23 to 7.52 | 7.00 to 7.22 |  |  | 5.10 to 5.30 | > 7.52 |  |
| Cn1cc(-c2ccc3nnc(C(F)(F)c4ccc5nc(NC(=O)C6CC6)cn5n4)n3c2)cn1 [45 (HCl Salt), N-(6-(Difluoro(6-(1-methyl-1H-pyrazol-4-yl)-[1,2,4]triazolo[4,3-a]pyridin-3-yl)methyl)imidazo[1,2-b]pyridazin-2-yl)cyclopropanecarboxamide hydrochloride] | > 7.52 |  | < 4.30 | > 7.52 |  |  | > 7.52 |
| Cn1cc(-c2ccc3nnc(C(F)(F)c4ccc5nc(NC(=O)C6CC6)cn5n4)n3c2)cn1 [45 (TFA Salt), N-(6-(difluoro(6-(1-methyl-1H-pyrazol-4-yl)-[1,2,4]triazolo[4,3-a]pyridin-3-yl)methyl)imidazo[1,2-b]pyridazin-2-yl)cyclopropanecarboxamide] | 7.23 to 7.52 |  |  |  |  |  |  |
| CC(c1ccc2nc(NC(=O)C3CC3)cn2n1)c1nnc2ccc(-c3cnn(C)c3)cn12 (stereo not shown) [49 (HCl Salt), N-(6-(1-(6-(1-methyl-1H-pyrazol-4-yl)-[1,2,4]triazolo[4,3-a]pyridin-3-yl)ethyl)imidazo[1,2-b]pyridazin-2-yl)cyclopropanecarboxamide] | > 7.52 |  |  | > 7.52 | 4.60 to 5.10 |  | 7.23 to 7.52 |
| CC(c1ccc2nc(NC(=O)C3CC3)cn2n1)c1nnc2ccc(-c3cnn(C)c3)cn12 (stereo not shown) [49 (TFA Salt), N-(6-(1-(6-(1-methyl-1H-pyrazol-4-yl)-[1,2,4]triazolo[4,3-a]pyridin-3-yl)ethyl)imidazo[1,2-b]pyridazin-2-yl)cyclopropanecarboxamide] | 7.23 to 7.52 | 7.00 to 7.22 |  |  | < 4.30 | 7.00 to 7.22 |  |
| CC(c1ccc2nc(NC(=O)C3CC3)cn2n1)c1nnc2ccc(-c3cnn(C)c3)cn12 (stereo not shown) [49 (free base), N-(6-(1-(6-(1-methyl-1H-pyrazol-4-yl)-[1,2,4]triazolo[4,3-a]pyridin-3-yl)ethyl)imidazo[1,2-b]pyridazin-2-yl)cyclopropanecarboxamide] | > 7.52 | 7.00 to 7.22 |  |  | < 4.30 | > 7.52 |  |
| O=C(Nc1cn2cc(Cn3nnc4cccnc43)ccc2n1)C(F)(F)F [Compound 1, N-(6-((3H-[1,2,3]triazolo[4,5-b]pyridin-3-yl)methyl)imidazo[1,2-a]pyridin-2-yl)-2,2,2-trifluoroacetamide] | < 7.00 |  |  |  |  |  |  |
| O=C(Nc1cn2cc(Cn3nnc4ncccc43)ccc2n1)C(F)(F)F [Compound 2, N-(6-((1H-[1,2,3]triazolo[4,5-b]pyridin-1-yl)methyl)imidazo-[1,2-a]pyridin-2-yl)-2,2,2-trifluoroacetamide] | < 7.00 |  |  |  |  |  |  |
| O=C(Nc1cn2nc(Sc3nnc4ccc(Br)cn34)ccc2n1)C1CC1 [Compound 4, N-(6-(6-bromo-[1,2,4]triazolo[4,3-a]pyridin-3-ylthio)imidazo[1,2-b]pyridazin-2-yl)cyclopropanecarboxamide] | 7.23 to 7.52 |  | < 4.30 | > 7.46 |  |  | 6.60 to 7.00 |
| Cn1cc(-c2ccc3nnc(Sc4ccc5nc(NC(=O)C6CC6)cn5n4)n3c2)cn1 [Compound 5, N-(6-(6-(1-methyl-1H-pyrazol-4-yl)-[1,2,4]triazolo[4,3-a]pyridin-3-ylthio)-imidazo[1,2-b]pyridazin-2-yl)cyclopropanecarboxamide] | > 7.52 |  | < 4.30 | > 7.46 |  |  | > 7.00 |
| Cc1ccn2c(Sc3ccc4nc(NC(=O)C5CC5)cn4n3)nnc2c1 [Compound 43, N-(6-(7-methyl-[1,2,4]triazolo[4,3-a]pyridin-3-ylthio)imidazo[1,2-b]pyridazin-2-yl)cyclopropanecarboxamide] | < 7.00 |  |  |  |  |  |  |
| NC(=O)c1ccc(-c2ccc3nnc(C(F)(F)c4ccc5nc(NC(=O)C6CC6)cn5n4)n3c2)cc1 [Compound 89, 4-(3-((2-(cyclopropanecarboxamido)imidazo[1,2-b]pyridazin-6-yl)difluoromethyl)-[1,2,4]triazolo[4,3-a]pyridin-6-yl)benzamide] | > 7.52 |  |  |  |  |  |  |
| Cc1ccncc1-c1ccc2nnc(C(F)(F)c3ccc4nc(NC(=O)C5CC5)cn4n3)n2c1 [Compound 94, N-(6-(difluoro(6-(4-methylpyridin-3-yl)-[1,2,4]triazolo[4,3-a]pyridin-3-yl)methyl)imidazo[1,2-b]pyridazin-2-yl)cyclopropanecarboxamide] | 6.20 to 6.60 |  |  |  |  |  |  |
| CNC(=O)c1ccc(-c2ccc3nnc(C(F)(F)c4ccc5nc(NC(=O)C6CC6)cn5n4)n3c2)cc1 [Compound 95, 4-(3-((2-(cyclopropanecarboxamido)imidazo[1,2-b]pyridazin-6-yl)difluoromethyl)-[1,2,4]triazolo[4,3-a]pyridin-6-yl)-N-methylbenzamide] | > 7.52 |  |  |  |  |  |  |
| Cn1cc(-c2ccc3nnc(Sc4ccc5nc(NC(=O)C6CC6)cn5n4)n3c2)ccc1=O [Compound 105, N-(6-(6-(1-methyl-6-oxo-1,6-dihydropyridin-3-yl)-[1,2,4]triazolo[4,3-a]pyridin-3-ylthio)imidazo[1,2-b]pyridazin-2-yl)cyclopropanecarboxamide] | > 7.52 |  |  |  |  |  |  |
| CCn1cc(-c2ccc3nnc(Sc4ccc5nc(NC(=O)C6CC6)cn5n4)n3c2)ccc1=O [Compound 106, N-(6-(6-(1-ethyl-6-oxo-1,6-dihydropyridin-3-yl)-[1,2,4]triazolo[4,3-a]pyridin-3-ylthio)imidazo[1,2-b]pyridazin-2-yl)cyclopropanecarboxamide] | > 7.52 |  |  |  |  |  |  |
| COCCOCc1ccc2nnc(Sc3ccc4nc(NC(=O)C5CC5)cn4n3)n2c1 [Compound 112, N-(6-(6-((2-methoxyethoxy)methyl)-[1,2,4]triazolo[4,3-a]pyridin-3-ylthio)imidazo[1,2-b]pyridazin-2-yl)cyclopropanecarboxamide] | 6.60 to 7.00 |  |  |  |  |  |  |
| Cc1c(F)ccc2nnc(Sc3ccc4nc(NC(=O)C5CC5)cn4n3)n12 [Compound 113, N-(6-(6-fluoro-5-methyl-[1,2,4]triazolo[4,3-a]pyridin-3-ylthio)imidazo[1,2-b]pyridazin-2-yl)cyclopropanecarboxamide] | 6.20 to 6.60 |  |  |  |  |  |  |
